Assay results as given in PubChem BioAssay AID330 (DTP/NCI, 2004).
Where “and” joins values, the source holds several entries; their conditions need not be identical. Equal values may be shown once. Toxic doses and inconclusive results are not listed. Rule for the calls: active = survival T/C of 150% or more; inactive = T/C below 125% in these data.

Test system: P388 leukemia ip, CD2F1 mice, survival T/C
Test: NCI In Vivo Anticancer Drug Screen. Data for tumor model P388 Leukemia (intraperitoneal) in CD2F1 (CDF1) mice
Conditions: endpoint: median survival time, higher = longer survival
Method in brief: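 Mice carrying the transplanted tumor received test compound or vehicle. Survival was recorded in each group, and the value is the treated-group measurement divided by that of the vehicle-treated control group.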

[1] = dose: 25.0 mg/kg/injection, schedule: Q01DX009 (ip), vehicle: saline with Tween-80
[2] = dose: 50.0 mg/kg/injection, schedule: Q01DX009 (ip), vehicle: saline with Tween-80
[3] = dose: 100.0 mg/kg/injection, schedule: Q01DX009 (ip), vehicle: saline with Tween-80
[4] = dose: 100.0 mg/kg/injection, schedule: Q04DX003 (ip), vehicle: saline
[5] = dose: 200.0 mg/kg/injection, schedule: Q04DX003 (ip), vehicle: saline
[6] = dose: 25.0 mg/kg/injection, schedule: Q01DX005 (ip), vehicle: Klucel (hydroxypropylcellulose) (HPC)
[7] = dose: 50.0 mg/kg/injection, schedule: Q01DX005 (ip), vehicle: Klucel (hydroxypropylcellulose) (HPC)
[8] = dose: 100.0 mg/kg/injection, schedule: Q01DX005 (ip), vehicle: Klucel (hydroxypropylcellulose) (HPC)
[9] = dose: 50.0 mg/kg/injection, schedule: Q01DX005 (ip), vehicle: saline with Tween-80
[10] = dose: 100.0 mg/kg/injection, schedule: Q01DX005 (ip), vehicle: saline with Tween-80
[11] = dose: 200.0 mg/kg/injection, schedule: Q01DX005 (ip), vehicle: saline with Tween-80
[12] = dose: 50.0 mg/kg/injection, schedule: Q01DX009 (ip), vehicle: Klucel (hydroxypropylcellulose) (HPC)
[13] = dose: 100.0 mg/kg/injection, schedule: Q01DX009 (ip), vehicle: Klucel (hydroxypropylcellulose) (HPC)
[14] = dose: 200.0 mg/kg/injection, schedule: Q01DX009 (ip), vehicle: Klucel (hydroxypropylcellulose) (HPC)

Measured: T/C

CC(=O)OC1CCC2(C)C(=CCC3C4CC(C5(O)C(=O)Nc6ccccc65)C(=O)C4(C)CCC32)C1 (stereo not drawn)
inactive: [1] 102 % of control | [2] 93 % of control | [3] 94 % of control

CCC(C)(C)N=C(Nc1cccnc1)Nc1ncccn1
inactive: [4] 101 % of control | [5] 92 % of control

Nc1cnnc2nc[nH]c12
inactive: dose: 12.5 mg/kg/injection, schedule: Q01DX005 (ip), vehicle: Klucel (hydroxypropylcellulose) (HPC) 100 % of control | [6] 101 % of control | [7] 100 % of control and 111 % of control | [8] 117 % of control

COc1ccc(S(=O)(=O)N/N=C\c2cc([N+](=O)[O-])cc([N+](=O)[O-])c2O)cc1OC
inactive: [9] 99 % of control | [10] 100 % of control | [11] 99 % of control

O=C(Nn1nnnc1-c1ccccc1)c1ccccc1
inactive: [6] 97 % of control | [7] 92 % of control | [8] 101 % of control

Cc1cc(=O)c2ccc(Br)cc2[nH]1
inactive: [9] 100 % of control | [10] 97 % of control | [11] 100 % of control

CCCOCC(=O)O
inactive: dose: 50.0 mg/kg/injection, schedule: Q01DX009 (ip), vehicle: saline 106 % of control | dose: 100.0 mg/kg/injection, schedule: Q01DX009 (ip), vehicle: saline 110 % of control | dose: 200.0 mg/kg/injection, schedule: Q01DX009 (ip), vehicle: saline 101 % of control

Clc1cccc2nc(-c3ccccn3)n(CCc3ccncc3)c12
inactive: [6] 95 % of control | [7] 95 % of control | [8] 95 % of control | dose: 200.0 mg/kg/injection, schedule: Q01DX005 (ip), vehicle: Klucel (hydroxypropylcellulose) (HPC) 93 % of control

CC(=O)n1c(Cl)c(/C=N/NS(=O)(=O)c2ccc(C)cc2)c2ccccc21
inactive: dose: 25.0 mg/kg/injection, schedule: Q01DX001 (ip), vehicle: saline with Tween-80 100 % of control | dose: 50.0 mg/kg/injection, schedule: Q01DX001 (ip), vehicle: saline with Tween-80 86 % of control and 88 % of control | dose: 100.0 mg/kg/injection, schedule: Q01DX001 (ip), vehicle: saline with Tween-80 91 % of control

O=C(c1cccs1)C1Cc2ccccc2C1=O (stereo not drawn)
inactive: dose: 100.0 mg/kg/injection, schedule: Q04DX003 (ip), vehicle: saline with Tween-80 95 % of control | dose: 200.0 mg/kg/injection, schedule: Q04DX003 (ip), vehicle: saline with Tween-80 90 % of control | dose: 400.0 mg/kg/injection, schedule: Q04DX003 (ip), vehicle: saline with Tween-80 90 % of control

NC(=O)[C@H]1C[C@H](O)CN1C(=O)c1cnc2ccccc2c1
inactive: dose: 60.0 mg/kg/injection, schedule: Q01DX005 (ip), vehicle: saline 112 % of control | dose: 120.0 mg/kg/injection, schedule: Q01DX005 (ip), vehicle: saline 98 % of control | dose: 240.0 mg/kg/injection, schedule: Q01DX005 (ip), vehicle: saline 102 % of control

Cc1ccc(S(=O)(=O)N(CCc2ccc(Cl)cc2)S(=O)(=O)c2ccc(C)cc2)cc1
inactive: [12] 109 % of control | [13] 94 % of control | [14] 93 % of control

Cc1cccc(C)c1NC(=O)C1C(=O)C(=O)N(c2c(C)cccc2C)C1=O (stereo not drawn)
inactive: dose: 25.0 mg/kg/injection, schedule: Q04DX002 (ip), vehicle: saline with Tween-80 100 % of control | dose: 50.0 mg/kg/injection, schedule: Q04DX002 (ip), vehicle: saline with Tween-80 101 % of control | dose: 100.0 mg/kg/injection, schedule: Q04DX002 (ip), vehicle: saline with Tween-80 98 % of control and 100 % of control

O=S(=O)(SC(Cl)(Cl)Cl)c1ccc(Cl)cc1
inactive: dose: 12.5 mg/kg/injection, schedule: Q01DX009 (ip), vehicle: saline sonified 100 % of control | dose: 25.0 mg/kg/injection, schedule: Q01DX009 (ip), vehicle: saline sonified 100 % of control | dose: 50.0 mg/kg/injection, schedule: Q01DX009 (ip), vehicle: saline sonified 100 % of control

CC(=O)Nc1ccc(O)c(CN2CCN(c3ccccc3)CC2)c1
inactive: [12] 102 % of control | [13] 103 % of control | [14] 97 % of control

CCC1(CC)C(=O)C(CC)(CC)C1=O
inactive: dose: 60.0 mg/kg/injection, schedule: Q01DX005 (ip), vehicle: saline with Tween-80 104 % of control | dose: 120.0 mg/kg/injection, schedule: Q01DX005 (ip), vehicle: saline with Tween-80 110 % of control | dose: 240.0 mg/kg/injection, schedule: Q01DX005 (ip), vehicle: saline with Tween-80 110 % of control

CC1CCC(C)N(C)C1 (stereo not drawn)
inactive: dose: 25.0 mg/kg/injection, schedule: Q01DX005 (ip), vehicle: saline with Tween-80 98 % of control | [9] 102 % of control

O=C(/C=C/c1ccc(Cl)c(Cl)c1)c1cccc(O)c(=O)c1
inactive: dose: 25.0 mg/kg/injection, schedule: Q01DX009 (ip), vehicle: Klucel (hydroxypropylcellulose) (HPC) 102 % of control | [12] 111 % of control and 118 % of control | [13] 118 % of control | [14] 118 % of control

O=C(c1ccccc1Cl)n1c(=O)oc2ccccc21
inactive: dose: 50.0 mg/kg/injection, schedule: Q04DX002 (ip), vehicle: Klucel (hydroxypropylcellulose) (HPC) 99 % of control | dose: 100.0 mg/kg/injection, schedule: Q04DX002 (ip), vehicle: Klucel (hydroxypropylcellulose) (HPC) 90 % of control | dose: 200.0 mg/kg/injection, schedule: Q04DX002 (ip), vehicle: Klucel (hydroxypropylcellulose) (HPC) 90 % of control

C=C(C(=O)OC)C(O)CC (stereo not drawn)
inactive: dose: 50.0 mg/kg/injection, schedule: Q01DX005 (ip), vehicle: saline 91 % of control | dose: 100.0 mg/kg/injection, schedule: Q01DX005 (ip), vehicle: saline 107 % of control | dose: 200.0 mg/kg/injection, schedule: Q01DX005 (ip), vehicle: saline 100 % of control

CN1CCN(CC(=O)c2c(-c3ccccc3)[nH]c3ccccc23)CC1
inactive: [4] 101 % of control | [5] 105 % of control | dose: 400.0 mg/kg/injection, schedule: Q04DX003 (ip), vehicle: saline 97 % of control

CSCCC([NH-])C(=O)O.CSCCC([NH-])C(=O)O.[Ni+2] (stereo not drawn)
inactive: dose: 0.79 mg/kg/injection, schedule: Q01DX009 (ip), vehicle: saline 92 % of control | dose: 1.56 mg/kg/injection, schedule: Q01DX009 (ip), vehicle: saline 96 % of control | dose: 3.12 mg/kg/injection, schedule: Q01DX009 (ip), vehicle: saline 97 % of control | dose: 12.5 mg/kg/injection, schedule: Q01DX009 (ip), vehicle: saline 94 % of control

ClC1(Cl)C2CCCCC21 (stereo not drawn)
inactive: [2] 100 % of control | [3] 90 % of control

COC1/C=C/OC2(C)Oc3c(C)c(O)c4c(O)c(c(/C=N/NC5C6CC7CC(C6)CC5C7)c(O)c4c3C2=O)NC(=O)/C(C)=C/C=C/C(C)C(O)C(C)C(O)C(C)C(OC(C)=O)C1C (stereo not drawn)
inactive: dose: 12.5 mg/kg/injection, schedule: Q01DX009 (ip), vehicle: saline with Tween-80 106 % of control | [1] 109 % of control | [2] 113 % of control and 95 % of control
